Positions count from the first letter of the chain named. Where “and” joins values, the source holds several entries; their conditions need not be identical. Identical values can stand only once. Like-named read-outs stand apart in the source and are kept apart here. One block for each compound: values may come before it.
Tests used:
[1] = target: T1, rho-tag(39)-Olfr49 (Mus musculus, UniProt Q9Z1V0); test: Odorant-induced Ca2+ influx (FLIPR) in forskolin-pre-treated HeLa-Cx43/CNGA2 cells expressing rho-tag(39)-Olfr49; type: cell-based
T1 construct: PCR-amplified the full-length coding regions of mouse Olfr49 (1-C6, NM010991); rho-tag(39): first 39 amino acids of bovine rhodopsin (N); expressed in transfected cells
T1 sequence (Q9Z1V0 1-313): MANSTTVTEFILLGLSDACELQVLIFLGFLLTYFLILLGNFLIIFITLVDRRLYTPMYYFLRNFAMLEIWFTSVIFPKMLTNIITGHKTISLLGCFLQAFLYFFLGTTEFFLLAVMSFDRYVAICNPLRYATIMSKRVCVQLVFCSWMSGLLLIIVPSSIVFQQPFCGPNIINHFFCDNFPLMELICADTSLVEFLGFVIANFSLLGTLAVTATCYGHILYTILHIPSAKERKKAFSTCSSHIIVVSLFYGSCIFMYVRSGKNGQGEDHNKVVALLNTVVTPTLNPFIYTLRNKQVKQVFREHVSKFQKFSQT

[2] = target: T2, homomeric olfactory CNGA2 channel (Rattus norvegicus, UniProt Q00195); details: Finn et al., 1998; cited from earlier work
T2 construct: host or cells: HEK293 (in the cited work)
T2 sequence (Q00195 1-664): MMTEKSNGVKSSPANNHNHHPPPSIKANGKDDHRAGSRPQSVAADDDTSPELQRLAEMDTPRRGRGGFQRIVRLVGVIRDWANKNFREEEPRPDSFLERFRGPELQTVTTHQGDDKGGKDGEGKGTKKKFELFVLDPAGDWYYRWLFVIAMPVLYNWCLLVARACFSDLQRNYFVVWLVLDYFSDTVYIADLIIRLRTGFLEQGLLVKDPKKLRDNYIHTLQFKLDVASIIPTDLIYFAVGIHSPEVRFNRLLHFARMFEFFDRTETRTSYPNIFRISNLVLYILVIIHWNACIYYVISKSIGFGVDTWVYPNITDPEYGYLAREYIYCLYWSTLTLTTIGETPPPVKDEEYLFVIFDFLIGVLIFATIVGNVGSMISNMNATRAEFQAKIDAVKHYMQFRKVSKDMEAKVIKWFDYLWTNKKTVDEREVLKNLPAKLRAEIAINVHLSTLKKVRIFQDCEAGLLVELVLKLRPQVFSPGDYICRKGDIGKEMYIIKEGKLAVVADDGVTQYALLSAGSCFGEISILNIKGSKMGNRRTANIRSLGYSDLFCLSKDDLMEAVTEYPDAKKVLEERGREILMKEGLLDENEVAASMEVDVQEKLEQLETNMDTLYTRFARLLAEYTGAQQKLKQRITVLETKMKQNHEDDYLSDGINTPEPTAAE

[3] = target: T3, CNGA2 channel (Bos taurus, UniProt Q03041); test: Inhibition of db-cAMP-activated CNGA2-dependent Ca2+ influx into HeLa-Cx43/CNGA2 cells; type: cell-based, bovine; details: for Block of db-cAMP-induced Ca2+ influx by CNGA2: n=2
T3 construct: expressed in transfected cells
T3 sequence (Q03041 1-663): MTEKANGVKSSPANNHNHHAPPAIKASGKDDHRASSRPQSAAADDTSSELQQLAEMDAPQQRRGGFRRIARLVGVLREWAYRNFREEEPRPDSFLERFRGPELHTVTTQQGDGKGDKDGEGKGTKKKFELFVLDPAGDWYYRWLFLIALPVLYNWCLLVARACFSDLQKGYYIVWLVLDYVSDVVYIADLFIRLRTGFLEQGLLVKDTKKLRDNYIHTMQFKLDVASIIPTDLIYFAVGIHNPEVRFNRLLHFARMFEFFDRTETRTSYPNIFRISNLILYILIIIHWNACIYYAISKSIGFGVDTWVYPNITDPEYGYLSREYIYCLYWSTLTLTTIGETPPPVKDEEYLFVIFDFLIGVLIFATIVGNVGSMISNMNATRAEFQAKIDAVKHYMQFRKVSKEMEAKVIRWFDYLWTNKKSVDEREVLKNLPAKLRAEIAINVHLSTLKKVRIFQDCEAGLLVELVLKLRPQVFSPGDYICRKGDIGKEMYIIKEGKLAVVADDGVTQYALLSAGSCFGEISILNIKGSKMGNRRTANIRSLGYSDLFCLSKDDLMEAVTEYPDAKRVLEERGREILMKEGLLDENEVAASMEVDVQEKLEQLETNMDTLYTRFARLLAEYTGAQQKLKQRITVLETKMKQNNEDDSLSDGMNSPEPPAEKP

[4] = system: rho-tag(20)-M4 chimeric mouse ORs; type: cell-based; details: for Responding OR chimeras: 93 OR chimeras
[5] = target: T4, Olfr49 (Mus musculus, UniProt Q9Z1V0); details: n=3
T4 sequence (Q9Z1V0 1-313): T1 sequence (Q9Z1V0 1-313)

[6] = target: T5, mOR267-1 (Mus musculus, UniProt Q8VBW9); details: chimera F2 and rho-tag(39)-full length OR, n=3
T5 sequence (Q8VBW9 1-316): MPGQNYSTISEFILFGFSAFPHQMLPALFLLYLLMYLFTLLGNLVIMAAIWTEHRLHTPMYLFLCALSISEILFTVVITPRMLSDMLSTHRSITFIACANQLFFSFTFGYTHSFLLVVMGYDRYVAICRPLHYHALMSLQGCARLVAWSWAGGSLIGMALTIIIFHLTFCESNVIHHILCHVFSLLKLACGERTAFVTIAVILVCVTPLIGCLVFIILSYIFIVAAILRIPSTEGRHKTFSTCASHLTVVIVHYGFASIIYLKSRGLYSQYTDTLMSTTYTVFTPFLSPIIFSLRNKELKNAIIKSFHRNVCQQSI

[7] = system: mOR261-10; details: 10 μM, chimera H1 and rho-tag(39)-full length OR, n=3
[8] = system: rho-tag(39)-Ors6; type: cell-based, mouse; details: 10 μM, thapsigargin pre-treated cells
[9] = target: T1, rho-tag(39)-Olfr49; type: cell-based; details: for Effect of pre-treatment on (−)citronellal-induced cAMP production: (−)citronellal 10 μM, thapsigargin 1 μM
Protocol: After 40 hours, the cells were pre-incubated with IBMX (100 μM, 30 min) and exposed to (−)citronellal or isoproterenol (2 min). The pre-stimulation with forskolin was generally omitted.
The inventors tested the possibility to follow an increase in cGMP by transfecting of the rat particular guanylyl cyclase type B (GC-B) into HeLa-Cx43/CNGA2 cells, for which the C type natriuretic peptide (CNP) is the known agonist (Lucas et al., 2000). […] The quantitative comparison of the relative potencies of the agonists by determining of their EC50 values is a standard method in the GPCR and agonist-classification.

[10] = target: T6, rho-tag(39)-OR1A1 (Homo sapiens, UniProt Q9P1Q5)
T6 sequence (Q9P1Q5 1-309): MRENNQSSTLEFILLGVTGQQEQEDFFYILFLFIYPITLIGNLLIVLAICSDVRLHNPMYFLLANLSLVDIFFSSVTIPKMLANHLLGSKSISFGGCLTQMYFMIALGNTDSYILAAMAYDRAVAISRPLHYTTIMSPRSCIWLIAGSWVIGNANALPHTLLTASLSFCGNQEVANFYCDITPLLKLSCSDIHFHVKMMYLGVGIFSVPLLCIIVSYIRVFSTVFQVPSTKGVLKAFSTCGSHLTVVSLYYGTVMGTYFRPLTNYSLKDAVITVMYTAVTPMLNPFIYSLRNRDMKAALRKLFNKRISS
Source text: (§1) In in situ RNA hybridisation-experiments, the inventors examined the gene expression of Olfr41, Olfr43, Olfr49, MOR261-10, MOR267-1, and Ors6 in OSN of the mouse OE.

[11] = target: T7, rho-tag(39)-Olfr43 (Mus musculus, UniProt Q7TRX1)
T7 sequence (Q7TRX1 1-313): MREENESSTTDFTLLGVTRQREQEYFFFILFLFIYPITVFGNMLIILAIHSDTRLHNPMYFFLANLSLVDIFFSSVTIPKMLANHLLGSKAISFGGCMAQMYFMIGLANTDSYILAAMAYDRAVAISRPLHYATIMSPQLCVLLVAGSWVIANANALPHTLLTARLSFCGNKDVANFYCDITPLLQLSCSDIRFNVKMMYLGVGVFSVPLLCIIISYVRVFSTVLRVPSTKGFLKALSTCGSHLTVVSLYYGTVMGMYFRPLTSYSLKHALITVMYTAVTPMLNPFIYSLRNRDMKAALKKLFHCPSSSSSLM
Source text: as §1

[12] = target: T8, rho-tag(39)-LOC331758 (Mus musculus, UniProt Q7TRX2)
T8 sequence (Q7TRX2 1-313): T7 sequence (Q7TRX1 1-313) with T10I, G106S, A108G, P306H
Source text: as §1

[13] = target: T9, Olfr43 (Mus musculus, UniProt Q7TRX1); details: 1 μM, chimera A1 and rho-tag(39)-full length OR, n=3
T9 sequence (Q7TRX1 1-313): T7 sequence (Q7TRX1 1-313)

[14] = system: rho-tag(39)-Olfr41; type: cell-based, mouse; details: 10 μM, thapsigargin pre-treated cells
[15] = EC50 for odorant-induced Ca2+ influx, stably expressed rho-tag(39)-Olfr49, forskolin-pre-treated

SMILES: CC(C)=CCCC(C)CC=O (single isomer, unassigned; (+)) [(+)citronellal]
- EC50 [1, 15]: 2.6 ± 0.4 µM

SMILES: Nc1nc2c(ncn2[C@@H]2O[C@@H]3COP(=O)(O)O[C@H]3[C@H]2O)c(=O)[nH]1 [cGMP]
- EC50 [2]: 3 µM
- EC50 for cGMP lower than the one for cAMP [2]: 20 fold

SMILES: CC(C)=CCCC(C)CCO (stereo not drawn) [beta-citronellol]
- Block of db-cAMP-induced Ca2+ influx by CNGA2 ([3]; at up to 3 mM): did not block
- EC50 [1, 15]: 32.8 ± 2.7 µM
- Responding OR chimeras ([4]; odorant 10 μM): 22%
- Response in single cell Ca2+ imaging ([5]; 10 μM): selectively responded
- Response in single cell Ca2+ imaging ([6]; 10 μM): selectively responded
- Response in single cell Ca2+ imaging [7]: selectively responded

- Block of db-cAMP-induced Ca2+ influx by CNGA2 ([3]; at up to 300 μM): did not block
SMILES: CC(C)=CCCC(C)CC(=O)O (centres unmarked) [citronellic acid]
- Response of the 93 OR chimeras ([4]; up to 10 μM, n=2): None of the 93 OR chimeras responded

SMILES: O=C(O)CCCCCCCC(=O)O [nonandione acid]
- Ca2+ influx [8]: induced a Ca2+ influx

SMILES: C/C=C(/C)C(=O)O[C@H]1C(C)=C2[C@H]([C@@H]1OC(=O)CCCCCCC)[C@@](C)(OC(C)=O)C[C@H](OC(=O)CCC)[C@@]1(O)[C@H]2OC(=O)[C@@]1(C)O [thapsigargin]
- Effect of pre-treatment on (−)citronellal-induced cAMP production ([9]; cells transfected with hG-alpha-olf): reduced
- Effect of pre-treatment on (−)citronellal-induced cAMP production ([9]; cells without hG-alpha-olf, compared to cells without pre-treatment, forskolin 2.5 μM): significantly increased

SMILES: CCCCCCCC=O [octanal]
- Block of db-cAMP-induced Ca2+ influx by CNGA2 ([3]; at up to 100 μM): did not block
- EC50 [1, 15]: 3.7 ± 0.1 µM

SMILES: CC(C)=CCCC(C)CC=O (single isomer, unassigned; (-)) [(−)citronellal]
- IC50 ([3]; IC50 for block of db-cAMP-induced Ca2+ influx by CNGA2, db-cAMP-pre-treated HeLa-Cx43/CNGA2 cells, FLIPR): 108 µM and 132 µM
- EC50 ([1]; EC50 for (−)citronellal-induced Ca2+ influx, transiently transfected rho-tag(39)-Olfr49, forskolin-pre-treated): 3.9 µM and 4 µM
- EC50 [1, 15]: 2.1 µM
- EC50 ([9]; EC50 for (−)citronellal-induced cAMP production, rho-tag(39)-Olfr49 stable cell line, n=2): 0.4 µM and 0.49 µM
- Responding OR chimeras ([4]; odorant 1 μM): 3%
- Responding OR chimeras ([4]; odorant 3 μM): 43%
- Percentage of responding ORs ([4]; subgroup of 67 OR chimeras, odorant 1 μM, n=1): 9%
- EC50 [10]: 2.2 ± 0.4 µM
- EC50 [11]: 2.1 ± 0.2 µM
- EC50 [12]: 3.2 ± 0.8 µM
- Response in single cell Ca2+ imaging [13]: selectively responded
- Response in single cell Ca2+ imaging ([5]; 1 μM): selectively responded
- Response in single cell Ca2+ imaging ([6]; 1 μM): selectively responded

- Block of db-cAMP-induced Ca2+ influx by CNGA2 ([3]; at up to 100 μM): did not block
- EC50 ([1]; stably expressed rho-tag(39)-Olfr49, forskolin-pre-treated, read-out: EC50 for odorant-induced Ca2+ influx): 6 ± 1 µM
SMILES: CCCCCCC=O [heptanal]
- Ca2+ influx [14]: triggered the Ca2+ influx

Reference: patent US20070105158A1, “Recombined cell system for deorphanizing g protein-coupled receptors” (Deutsches Institut fur Ernahrungsforschung-Stiftun, priority 2003, published 2007)
